Test results published in patent US20210170035A1, “METHOD OF TREATING CANCER BY TARGETING MYELOID-DERIVED SUPPRESSOR CELLS” (priority 2016, published 2021).

Columns and labels:
[1] = tested on: F4/80+CD86+ : F4/80+CD206+ macrophages; test: Ratio of M1 to M2 macrophages in 4T1 solid tumor; type: in vivo, balb/c mice; conditions: tumor digestion at end of therapeutic study
Method: The ratio of M1 to M2 macrophages (F4/80+CD86+: F4/80+CD206+) was tested in groups of untreated control, FA-TLR7 agonist, FA-PI3K inhibitor, FA-Tubulysin and combination as well as competition groups.
As described in the previous methods part, after tumor digestion at the end of therapeutic study, isolated cells were stained by F4/80 macrophage marker and M1 (CD86), M2 (CD206) markers. Macrophages in a tumor environment have been considered as a mainly M2 macrophage function, which can support tumor growth and suppress the immune response. On the other hand, M1 macrophages have been considered to be able to eliminate tumor cells and stimulate an anti-cancer immune response. Therefore, to study the M1 to M2 macrophage ratio is very important for targeting FR-β positive TAMs/MDSCs. […] Therefore, it could be concluded that by targeting FR+ TAMs/MDSCs in 4T1 solid tumor, the three classes of FA-conjugated […] are able to convert immunosuppression M2 macrophages environment to an anti-cancer M1 macrophages environment, which would contribute to the slow growth of a tumor.

MDSCs (CD11b+Gr1+) = test: MDSCs population (CD11b+Gr1+) in 4T1 solid tumor; type: in vivo, balb/c mice; conditions: tumor digestion at end of therapeutic study
Method: The MDSCs population (CD11b+Gr1+) was tested in groups of untreated control, FA-TLR7 agonist, FA-PI3K inhibitor, FA-Tubulysin and combination as well as competition groups.
As described in previous methods part, after tumor digestion at the end of therapeutic study, isolated cells were stained by MDSCs markers CD11b+Gr1+, see FIG. 26.

F4/80+ macrophages = test: Intracellular staining of arginase on F4/80+ macrophages from 4T1 solid tumor; type: in vivo, balb/c mice; conditions: tumor digestion at end of therapeutic study
Method: Intracellular arginase staining: Cell surface markers for TAMs/MDSCs were labeled following procedures mentioned previously. 0.1 μL fixable viability dye eFluor® 660 was added together with antibody cocktails. After washing with PBS, cells were fixed with 4% formaldehyde in 500 μL of PBS for 15 min at 4° C. Cells were spun down to remove fixing solution. Cells were washed two times with 500 μL washing buffer containing 0.1 M glycine and 0.05% sodium azide. After being spun down a final time, cells were added 1 mL permeabilization solution containing 0.1 M glycine, 0.05% sodium azide and 0.1% triton-100. Permeabilization was performed at room temperature for 5 min. Permeabilized cells were spun down at 1500 rpm for 1 min, and the cells were washed three times with 1 mL blocking buffer containing 0.05 M glycine, 0.05% sodium azide and 0.2% gelatin. Cells were then re-suspended in 1 mL blocking buffer at 4° C. overnight to block non-specific intracellular binding. Cells were then spun down at 1500 rpm for 1 min to remove the supernatant and another 100 μL blocking buffer containing 1 μL FITC-arginase was added. Cells were kept in the dark at 4° C. overnight. After being spun down at 1500 rpm for 1 min, cells were washed with 1 mL blocking buffer and were then ready for flow cytometry analysis (BD Accuri C6™ flow cytometer). […]

SMILES: CCCCc1nc2c(N)nc3ccccc3c2n1CC(C)(C)OC(=O)OCCSSCC(NC(=O)CCC(NC(=O)c1ccc(NCc2cnc3nc(N)[nH]c(=O)c3n2)cc1)C(=O)O)C(=O)O (stereo not drawn) [FA-TLR7 agonist]
- anti-cancer effect on co-injection of 200 times more competitor (FA-PEG-NH2) (4T1 solid tumor; competition group, same schedule): can be competed
- tumor growth, therapeutic study (4T1 solid tumor; i.v. 5 days per week for 2 weeks from day 6, 10 nmol FA-TLR7 agonist, 10 nmol FA-PI3K inhibitor, 30 nmol FA-tubulysin): tumor growth was slowed down
- tumor growth, dose study (4T1 solid tumor; i.v. 5 days per week for 2 weeks from day 6, especially in groups of 5 nmol, 10 nmol and 20 nmol): tumor growth was slowed down
- M1 to M2 macrophages ratio vs untreated control [1]: dramatically increased
- MDSCs population (CD11b+Gr1+) vs untreated control (MDSCs (CD11b+Gr1+)): dramatically decreased MDSCs population
- arginase+F4/80+ cell population in live cells vs untreated control (F4/80+ macrophages): dramatically decreased
